Laboratory results as given in patent US8981179B2, “Transgenic non-human animal and uses thereof” (Sanofi, priority 2009, dated 2015).
Blank lines part the entries; values can stand above or below the compound they belong to.

Legend:
beta-cell = assay: Effect of beta-cell toxin on induction of CRE-Luc by AVE0010; type: in vivo, mouse; conditions: line 11, STZ 200 mpk, ip, imaged four days later after AVE0010
[1] = Blood glucose in unfasted CRE-luc mice; type: in vivo, mouse; conditions: line 11, STZ 200 mpk, ip, unfasted mice
Protocol: The induction of CRE-Luc by AVE0010 is likely beta-cell-specific (FIG. 31). Animals were treated as described in FIG. 30. Blood glucose levels were measured by tail vein nicking on unfasted mice. Glucose levels were read on a Bayer glucometer. Glucose levels are shown as mg glucose/[…]. Fold induction is the luciferase bioimaging levels of AVE10 dosing versus the baseline signals. Blood glucose levels (BG) were increased by STZ (upper left panel). Non-fasting BG levels were reduced by AVE0010 (0.1 mg/kg, sc).

DP1 receptor = biological target: T1, DP1 receptor (Mus musculus, UniProt P70263); assay: Primary microglia CreLuc luciferase assay, DP agonist; type: cell-based; conditions: 10 μM, 4 hours
T1 construct: Primary microglia were isolated from the cortices from P2 mice; endogenous in cells; host or cells: whole splenocytes, CD4+ T cells and primary microglia (P2 cortices), CreLuc mouse line 64
T1 sequence (P70263 1-357): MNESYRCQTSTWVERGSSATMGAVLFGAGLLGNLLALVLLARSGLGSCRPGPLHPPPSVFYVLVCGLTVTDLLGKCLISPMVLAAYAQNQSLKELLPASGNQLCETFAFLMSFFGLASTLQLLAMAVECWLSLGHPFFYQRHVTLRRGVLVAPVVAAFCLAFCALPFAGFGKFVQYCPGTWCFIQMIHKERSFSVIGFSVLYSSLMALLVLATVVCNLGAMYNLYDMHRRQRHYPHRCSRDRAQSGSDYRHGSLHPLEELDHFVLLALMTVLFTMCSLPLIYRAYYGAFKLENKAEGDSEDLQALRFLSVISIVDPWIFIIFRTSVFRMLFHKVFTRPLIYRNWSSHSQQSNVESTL
Protocol: (§1) Induction of luciferase expression in microglia isolated from CreLuc mice by the general cAMP activators, forskolin and rolipram, and an agonist for the DP receptor, BW245C was examined (FIG. 22). Primary microglia were isolated from the cortices from P2 mice in media consisting of DMEM (GIBCO Cat#11995), 10% FBS (GIBCO Cat#16140) and 1% Penicillin-Streptomycin 100× (GIBCO Cat#15140). The cells were plated in 96 well format on Poly-D-Lysine-coated plates. Cells were either left untreated or stimulated for 2 hours with 100 ng/ml LPS. Compounds were then added for an additional 4 hours before the Bright Glo assay was run. The compounds used were 5 μM forskolin, 10 μM rolipram or the combination of the two, or the Gs agonist for the DP1 receptor, BW245C at 10 μM. In unstimulated conditions, microglia are unresponsive to general cAMP modulators and the specific Gs agonist for the DP receptor. However, when microglia were stimulated with LPS, the cells became responsive to forskolin and BW245C.

DP = biological target: T2, DP (Mus musculus, UniProt P70263); assay: Isolated CD4+ T cells CreLuc luciferase assay, DP agonist; type: cell-based; conditions: line 64 CD4+ T cells, anti CD3 24 hours, 10 μM, 4 hours
T2 construct: Primary microglia were isolated from the cortices from P2 mice; endogenous in cells; host or cells: whole splenocytes, CD4+ T cells and primary microglia (P2 cortices), CreLuc mouse line 64
T2 sequence (P70263 1-357): T1 sequence (P70263 1-357)
Protocol: The effects of different Gs agonists on luciferase levels in anti CD3 stimulated CD4+ T cells isolated from CreLuc mice was studied (FIG. 19). Whole splenocyte populations were prepared by mechanical disruption. CD4+ cells were then isolated by MACS Magnetic Separation with Positive Selection (Miltenyi Biotec cat#130-049-201). The cells, 1.5×10^5 per well, were then plated on 96 well white opaque plates and then stimulated with anti CD3 antibodies (BD Pharmingen cat#553058). After 24 hours, compounds were added for an additional 4 hours. Gs agonists for DP (BW245C), EP2 (EX00000173A) and ADβR (isoproterenol) were all used at 10 μM. Forskolin 5 μM, and rolipram 10 μM. BrightGlo (Promega, Madison, Wis., cat#E2610) was added and the assay was read on the TopCount. A 25-fold increase is observed in cells treated with forskolin and rolipram. […] The transgene was responsive to specific Gs agonists as well as general modulators of the cAMP pathway.

[2] = biological target: T3, prostaglandin D2 receptor 1 (DP1) (Mus musculus, UniProt P70263); assay: Whole splenocytes CreLuc luciferase assay, DP1 agonist; type: cell-based; conditions: line 64 whole splenocytes, 10 uM, 4 hours
T3 construct: Primary microglia were isolated from the cortices from P2 mice; endogenous in cells; host or cells: whole splenocytes, CD4+ T cells and primary microglia (P2 cortices), CreLuc mouse line 64
T3 sequence (P70263 1-357): T1 sequence (P70263 1-357)
Protocol: Whole splenocyte preps isolated from CreLuc mice were used to show the effects of general cAMP inducers such as forskolin and rolipram, as well as Gs agonists on luciferase expression (FIG. 16). Spleens were harvested from the animals in 1×HBSS (Invitrogen, Carlsbad, Calif., cat#14025). The cells were then isolated by mechanically disrupting the spleen capsule using the end of a 5 ml syringe in 5 mls of D-PBS (Invitrogen, Carlsbad, Calif., cat#14190). The cell suspension was then passed through a 70 um strainer into a 50 ml conical tube. The cells were then spun down at 800 rpm, then resuspended and incubated for 6 minutes at room temperature in 5 ml of 1× Pharm Lyse solution (BD BioSciences, cat#555899). Cells were then washed by adding 28 mls of media consisting of RPMI 1640 (Invitrogen, Carlsbad, Calif., cat#11875), 10% FCS (Invitrogen, Carlsbad, Calif., cat#16000), 1% pen/strep (Invitrogen, Carlsbad, Calif., cat#15070) and 0.1% β-mercaptoethanol (Invitrogen, Carlsbad, Calif., cat#21985). Cells were diluted to 2×10^6/ml, and 100 ul of the cells were plated per well in a 96 well white opaque plate. Half of the cells were stimulated for 24 hours with anti-CD3 antibody (BD Pharmingen, cat#553058), the other half were untreated. […] After 4 hours, 100 μl of BrightGlo (Promega, Madison, Wis., cat#E2610) and the assay was read on a TopCount luminometer. […]

plasma cAMP [3] = conditions: Balb/c mice, 10 mg/kg, blood harvested after 20 minutes; cited from earlier work
[4] = test system: cAMP (CreLuc luciferase reporter); assay: Primary microglia CreLuc luciferase assay, general cAMP activators; type: cell-based, mouse; conditions: line 64, unstimulated, 5 μM forskolin, 10 μM rolipram, 4 hours
Protocol: as §1

plasma cAMP [5] = assay: In vivo stimulation of cAMP in plasma (ELISA); set-up: species or system FVB/Tac mice; conditions: FVB/Tac females, i.p., forskolin 5 mg/kg, rolipram 10 mg/kg, 30 minutes
Protocol: FVB/Tac females were dosed with either vehicle (1% DMSO) or drugs i.p., then 30 minutes later, blood samples were collected and assayed for cAMP by ELISA (Assay Designs, Ann Arbor, Mich., cat#900-163). The drugs used are as follows: 5 mg/kg forskolin (F) (Sigma F6886), 5 mg/kg water soluble forskolin (H20F) (Calbiochem 344273), 10 mg/kg rolipram (R) (Sigma R6520) or combinations of either forskolin plus rolipram (F/R). […] Forskolin increases cAMP levels by activating adencylate cyclase while inhibitors of PDE4, such as rolipram, raise plasma cAMP by preventing hydrolysis of cAMP. A combination of rolipram and water soluble forskolin increases cAMP levels in vivo 14 fold. This combination was used to provide a large window of induction for founder screening by bioimaging, a representative study is shown in FIG. 6.
FIG. 5B is a cAMP assay on plasma levels in wild-type mice following various treatment with forskolin (F), rolipram (R) or a combination of forskolin and rolipram (F/R). […]

SMILES: CN(N=O)C(=O)N[C@H]1C(O)O[C@H](CO)[C@@H](O)[C@@H]1O (mixture of isomers) [STZ, streptozotocin]
luciferase induction by AVE0010 compared to vehicle group (beta-cell): decreased luciferase induction
blood glucose levels (BG) [1]: increased

luciferase response of LPS stimulated microglia (DP1 receptor; line 64, 100 ng/ml LPS 2 hours): responsive
luciferase response of unstimulated microglia (DP1 receptor; line 64, unstimulated): unresponsive
increase of luciferase (DP): 3 fold
luciferase versus DMSO only control (t-test) [2]: Statistically significant increases
SMILES: O=C(O)CCCCCCC1C(=O)NC(=O)N1CCC(O)C1CCCCC1 (stereo not drawn) [BW245C]

luciferase response of unstimulated microglia [4]: unresponsive
SMILES: COc1ccc(C2CNC(=O)C2)cc1OC1CCCC1 (stereo not drawn) [rolipram]
plasma cAMP levels (plasma cAMP [3]): significantly increase
elevation of circulating cAMP levels vs vehicle (plasma cAMP [5]): statistically significance in their elevation
